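The compound was tested at five concentrations on cells cultured in 96-well plates, with a 48-hour exposure period. Definition used: TGI = concentration required for complete inhibition of growth.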

The test system of one assay is MALME-3M melanoma. The assay is described as follows: inhibition of tumour cell growth, NCI panel, 48 h.
Take `CC(C)(CN1CCCCC1)C(=O)/C=C/c1ccc(Br)cc1`: the TGI was 17.4 µM.
On the same count and under the same terms, next, `COc1ccc2c(C(=O)O)cc3ccccc3c2c1OC`: 41.9 µM; `Cc1ccccc1C(CCCO)C(=O)O` (stereo not given): more than 100 µM.
Consider `COc1ccc(-c2c(C3=NCCCN3)nnn2-c2ccccc2)cc1`, for which the TGI was more than 100 µM.

The next assay deals with A549 NSCLC. In words: inhibition of tumour cell growth, NCI panel, 48 h.
Consider `CC(C)(CN1CCCCC1)C(=O)/C=C/c1ccc(Br)cc1`, for which the TGI is 7.9 µM.
The same measure, in the same setting: next, `COc1ccc2c(C(=O)O)cc3ccccc3c2c1OC`: more than 100 µM.
Compound `Cc1ccccc1C(CCCO)C(=O)O` (stereo not given) returned a TGI of more than 100 µM.
`COc1ccc(-c2c(C3=NCCCN3)nnn2-c2ccccc2)cc1` showed a TGI of more than 100 µM.

For another assay, the system named is SR leukemia. The assay is described as follows: inhibition of tumour cell growth, NCI panel, 48 h.
In turn, `CC(C)(CN1CCCCC1)C(=O)/C=C/c1ccc(Br)cc1` yielded a TGI of 7.68 µM.
On the same count and under the same terms, under `COc1ccc2c(C(=O)O)cc3ccccc3c2c1OC` stands more than 100 µM.
Same read-out and setting: next, `COc1ccc(-c2c(C3=NCCCN3)nnn2-c2ccccc2)cc1`: more than 100 µM.

For a further assay, the system named is SK-MEL-2 melanoma. In words: inhibition of tumour cell growth, NCI panel, 48 h.
`CC(C)(CN1CCCCC1)C(=O)/C=C/c1ccc(Br)cc1` returned a TGI of 9.04 µM.
The compound `COc1ccc2c(C(=O)O)cc3ccccc3c2c1OC` returned a TGI of 94.9 µM.
On the same count and under the same terms, next, `Cc1ccccc1C(CCCO)C(=O)O` (stereo not given): more than 100 µM; `COc1ccc(-c2c(C3=NCCCN3)nnn2-c2ccccc2)cc1`: more than 100 µM.

In another assay the test system is K-562 leukemia. The assay is described as follows: inhibition of tumour cell growth, NCI panel, 48 h.
Regarding `CC(C)(CN1CCCCC1)C(=O)/C=C/c1ccc(Br)cc1`, the TGI came out at 8.95 µM.
Same read-out and setting: next, `COc1ccc2c(C(=O)O)cc3ccccc3c2c1OC`: 80.6 µM; `Cc1ccccc1C(CCCO)C(=O)O` (stereo not given): more than 100 µM; `COc1ccc(-c2c(C3=NCCCN3)nnn2-c2ccccc2)cc1`: more than 100 µM.

A further assay concerns SK-OV-3 ovarian. The assay is described as follows: inhibition of tumour cell growth, NCI panel, 48 h.
`CC(C)(CN1CCCCC1)C(=O)/C=C/c1ccc(Br)cc1` registered a TGI of 8.18 µM.
On the same count and under the same terms, under `COc1ccc2c(C(=O)O)cc3ccccc3c2c1OC` stands more than 100 µM; under `Cc1ccccc1C(CCCO)C(=O)O` (stereo not given), more than 100 µM.
On the same count and under the same terms, under `COc1ccc(-c2c(C3=NCCCN3)nnn2-c2ccccc2)cc1` stands more than 100 µM.

For a further assay, the system named is LXFL 529 NSCLC. In words: inhibition of tumour cell growth, NCI panel, 48 h.
Compound `CC(C)(CN1CCCCC1)C(=O)/C=C/c1ccc(Br)cc1` returned a TGI of 3.52 µM.
The compound `COc1ccc2c(C(=O)O)cc3ccccc3c2c1OC` had a TGI of 30.9 µM.
On the same count and under the same terms, next, `Cc1ccccc1C(CCCO)C(=O)O` (stereo not given): more than 100 µM; `COc1ccc(-c2c(C3=NCCCN3)nnn2-c2ccccc2)cc1`: more than 100 µM.

A further assay deals with UACC-62 melanoma. In words: inhibition of tumour cell growth, NCI panel, 48 h.
The compound `CC(C)(CN1CCCCC1)C(=O)/C=C/c1ccc(Br)cc1` gave a TGI of more than 22.9 µM.
As for `COc1ccc2c(C(=O)O)cc3ccccc3c2c1OC`, the TGI amounted to 32.5 µM.
The compound `Cc1ccccc1C(CCCO)C(=O)O` (stereo not given) had a TGI of more than 100 µM.
The compound `COc1ccc(-c2c(C3=NCCCN3)nnn2-c2ccccc2)cc1` registered a TGI of more than 100 µM.

A further assay relates to UO-31 renal. In words: inhibition of tumour cell growth, NCI panel, 48 h.
As for `CC(C)(CN1CCCCC1)C(=O)/C=C/c1ccc(Br)cc1`, the TGI is more than 24.7 µM.
The compound `COc1ccc2c(C(=O)O)cc3ccccc3c2c1OC` yielded a TGI of 30.9 µM.
Same read-out and setting: under `Cc1ccccc1C(CCCO)C(=O)O` (stereo not given) stands more than 100 µM; under `COc1ccc(-c2c(C3=NCCCN3)nnn2-c2ccccc2)cc1`, more than 100 µM.

In a further assay the test system is M14 melanoma. The assay is described as follows: inhibition of tumour cell growth, NCI panel, 48 h.
As to `CC(C)(CN1CCCCC1)C(=O)/C=C/c1ccc(Br)cc1`, the TGI stood at 4.75 µM.
Same read-out and setting: under `COc1ccc2c(C(=O)O)cc3ccccc3c2c1OC` stands 30.7 µM.
As to `Cc1ccccc1C(CCCO)C(=O)O` (stereo not given), the TGI is more than 100 µM.
The same measure, in the same setting: under `COc1ccc(-c2c(C3=NCCCN3)nnn2-c2ccccc2)cc1` stands more than 100 µM.

The test system of the next assay is RXF 393 renal. In words: inhibition of tumour cell growth, NCI panel, 48 h.
Take `CC(C)(CN1CCCCC1)C(=O)/C=C/c1ccc(Br)cc1`: the TGI turned out to be 4.48 µM.
On the same count and under the same terms, under `COc1ccc2c(C(=O)O)cc3ccccc3c2c1OC` stands 28.6 µM; under `Cc1ccccc1C(CCCO)C(=O)O` (stereo not given), more than 100 µM; under `COc1ccc(-c2c(C3=NCCCN3)nnn2-c2ccccc2)cc1`, more than 100 µM.

A further assay concerns DMS 273 small cell lung. The assay is described as follows: inhibition of tumour cell growth, NCI panel, 48 h.
Compound `CC(C)(CN1CCCCC1)C(=O)/C=C/c1ccc(Br)cc1` returned a TGI of 4.92 µM.
Same read-out and setting: under `COc1ccc2c(C(=O)O)cc3ccccc3c2c1OC` stands 53.4 µM; under `Cc1ccccc1C(CCCO)C(=O)O` (stereo not given), more than 100 µM; under `COc1ccc(-c2c(C3=NCCCN3)nnn2-c2ccccc2)cc1`, more than 100 µM.

A further assay has as its system HCT-15 colon. The assay is described as follows: inhibition of tumour cell growth, NCI panel, 48 h.
Take `CC(C)(CN1CCCCC1)C(=O)/C=C/c1ccc(Br)cc1`: the TGI was more than 24.7 µM.
Still for that read-out and setting: under `Cc1ccccc1C(CCCO)C(=O)O` (stereo not given) stands more than 100 µM.
`COc1ccc(-c2c(C3=NCCCN3)nnn2-c2ccccc2)cc1` came in with a TGI of more than 100 µM.

The subject of a further assay is NCI-H522 lung. The assay is described as follows: inhibition of tumour cell growth, NCI panel, 48 h.
The compound `CC(C)(CN1CCCCC1)C(=O)/C=C/c1ccc(Br)cc1` came in with a TGI of 3.98 µM.
Still for that read-out and setting: under `COc1ccc2c(C(=O)O)cc3ccccc3c2c1OC` stands 26.8 µM; under `Cc1ccccc1C(CCCO)C(=O)O` (stereo not given), more than 100 µM.
On the same count and under the same terms, next, `COc1ccc(-c2c(C3=NCCCN3)nnn2-c2ccccc2)cc1`: more than 100 µM.

A further assay deals with A498 renal. The assay is described as follows: inhibition of tumour cell growth, NCI panel, 48 h.
Consider `CC(C)(CN1CCCCC1)C(=O)/C=C/c1ccc(Br)cc1`, for which the TGI was found to be 5.8 µM.

The record behind these values is PubChem BioAssay (NCI).
